Data set [1] has as its system RPMI 8226 cells. Briefly: MTT assay cytotoxicity RPMI 8226.
In data set [2] the test system is MDA-MB-231 cells. Briefly: MTT assay cytotoxicity MDA-MB-231.
Description: (§4) The cells were incubated at 37° C. in a humidified atmosphere with 5% CO2.
(§5) 100 μL of cells were added to each well of a 96 well microtiter plate at a concentration of 4×10^4 cells/mL and incubated overnight to allow proper adhesion. (RPMI 8226 cells were plated at 4×10^5 cells/mL). The cells were treated with the panel of test compounds at a series of concentrations, along with vehicle control DMSO and untreated cells as controls. After 48 h incubation, 20 μL of MTT reagent (3-(4,5-dimethylthiazol-2-yl)-2,5-diphenyltetrazolium bromide) in PBS (5 mg/mL) was added to each well of the plates. The plate was incubated for 2 h at 37° C. For adherent cell lines, the media was removed from each well of the plate and the resulting formazan crystals dissolved in 100 μL of DMSO. For RPMI 8226 cells, 200 ul of DMF/SDS mix (50% DMF. 10% w/v SDS pH<4) was used to solubilize the formazan crystals. Optical density (OD) at 490 nm was measured using a microplate reader. Cells treated with 1 μM phenyl arsine oxide (PAO) served as a positive cell-killing control. Technical replicates of these assays were performed in biological quadruplicate, and the three best values were used for analysis in order to eliminate outliers. Data presented are the average IC50 value calculated from at least 3 technical replicates with the corresponding standard deviation.
For data set [3], the target named is T1, trypsin-like activity of the 26S proteasome (Homo sapiens, UniProt Q99436).
T1 construct: endogenous in cells; host or cells: Jurkat (ATCC TIB-152, E6-1 clone) cell lysate
T1 sequence (Q99436 44-277): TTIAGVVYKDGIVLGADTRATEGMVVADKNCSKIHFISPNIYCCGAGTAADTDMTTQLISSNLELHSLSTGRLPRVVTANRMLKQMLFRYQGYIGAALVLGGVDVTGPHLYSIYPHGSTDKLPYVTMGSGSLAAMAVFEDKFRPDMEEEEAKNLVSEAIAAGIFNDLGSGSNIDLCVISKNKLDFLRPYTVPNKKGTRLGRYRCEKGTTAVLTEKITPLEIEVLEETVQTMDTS
Briefly: Proteasome assay, trypsin-like (T-L) activity, SUC-RLR-AMC, Jurkat cell lysate. The data set is classed as biochemical. The settings on record: ± S.D., read-out: Proteasome Inhibition T-L-like IC50. As for the experimental part:
(§1) The lysate was stored at −80° C. until the sample was used for the proteasome assay.
(§2) The compounds were diluted with lysis buffer; 10 μL of the compound-containing solution was added to the test wells at ten times the final concentration. […] The results are reported as the average of at least 3 technical replicates of IC50 values for proteasome inhibition.

Data set [4] has as its system MCF7 cells. Briefly: MTT assay cytotoxicity MCF7.
Description: as §4, §5
In data set [5] the target is T2, chymotrypsin-like activity of the 26S proteasome (Homo sapiens, UniProt P28074).
T2 construct: endogenous in cells; host or cells: Jurkat (ATCC TIB-152, E6-1 clone) cell lysate
T2 sequence (P28074 60-263): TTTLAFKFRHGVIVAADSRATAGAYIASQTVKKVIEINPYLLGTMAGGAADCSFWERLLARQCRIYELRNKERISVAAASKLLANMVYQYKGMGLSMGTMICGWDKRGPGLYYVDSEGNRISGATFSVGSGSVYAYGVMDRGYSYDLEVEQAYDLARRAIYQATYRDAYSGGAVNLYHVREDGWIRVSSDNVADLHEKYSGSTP
Briefly: Proteasome assay, chymotrypsin-like (ChT-L) activity, Suc-LLVY-AMC, Jurkat cell lysate. The data set is classed as biochemical. The settings on record: ± S.D. As for the experimental part:
as §1, §2

For data set [6], the target named is T3, ChT-L activity of 26S proteasomes in intact MCF-7 cells (Homo sapiens, UniProt P28074).
T3 construct: endogenous in cells; host or cells: MCF7 cells (treated intact, then lysed)
T3 sequence (P28074 60-263): T2 sequence (P28074 60-263)
Briefly: Cell infiltration of PIs: proteasome inhibition in intact MCF7 cells. The note with it: intact versus lysed MCF-7 cells, 1 h. The data set is classed as cell-based. The method, then:
100 μL MCF7 cells at a concentration of 500,000 cells/mL were added to a 96 well microtiter plate and incubated overnight at 37° C. and 5% CO2 to allow cells to adhere at 100% confluency. The cells were treated and then incubated for at 37° C. and 5% CO2 for 1 hour as a standard time to allow for drug infiltration. […] The plate was rocked on ice for 1 hr and then 90 μL of cell lysate was transferred to a black 96 well microtiter plate. 10 μL of lysis buffer was added to the top of all wells containing treated cells and one set of control wells. 10 μL of 1 mM of compound 8 was added to the second set of control wells as a positive control for proteasome inhibition. The plate was then incubated at 37° C. for 15 minutes to allow for control drug binding. Chymotrypsin-like activity was then measured by adding 10 μL of 100 μM Suc-LLVY-AMC in lysis buffer to each well and then incubating for 1 h at 37° C. […] Standard deviation for cell infiltration was calculated by propagating the error from the two IC50 values.
The difference between proteasome inhibition within intact versus lysed cells was evaluated as a representative measure of PIs ability to infiltrate cells and access intracellular proteasomes. […] Assays were performed in biological triplicate, and the data points are reported with the corresponding standard deviations. […]

Data set [7] deals with MDA-MB-231 cells.
Description: as §4, §5
Data set [8] concerns RPMI 8226 cells.
In data set [9] the test system is cancer cells (MCF7, MDA-MB-231, RPMI 8226).
Description: as §5
Data set [10] deals with MCF7 cells.
Description: as §4, §5
Data set [11] concerns the target T4, yeast proteasome yβ1 subunit (Saccharomyces cerevisiae, UniProt P25043+P38624).
T4 construct: measured using 8 μg/mL of purified yCP or iCP
Briefly: Subunit selectivity, purified yeast proteasome yβ1. The data set is classed as biochemical. The settings on record: 8 μg/mL purified yCP; ± SD; read-out: yβ1 IC50. As for the experimental part:
as §2
(§3) Values and standard deviations were calculated from an assay performed in biological triplicate.

Data set [12] has as its target T5, yeast proteasome yβ2 subunit (Saccharomyces cerevisiae, UniProt P25043+P25451).
T5 construct: measured using 8 μg/mL of purified yCP or iCP
Briefly: Subunit selectivity, purified yeast proteasome yβ2. The note with it: 8 μg/mL purified yCP; ± SD; read-out: yβ2 IC50. The data set is classed as biochemical. As for the experimental part:
as §2, §3

Data set [13] deals with T6, yeast proteasome yβ5 subunit (Saccharomyces cerevisiae, UniProt P23724+P30656).
T6 construct: measured using 8 μg/mL of purified yCP or iCP
Briefly: Subunit selectivity, purified yeast proteasome yβ5. The data set is classed as biochemical. The note with it: 8 μg/mL purified yCP; ± SD; read-out: yβ5 IC50. As for the experimental part: as §2, §3

For data set [14], the target named is T7, β5 subunit of the 26S yeast proteasome (yCP) (Saccharomyces cerevisiae, UniProt P23724+P30656).
T7 construct: measured using 8 μg/mL of purified yCP or iCP
Briefly: Protein-drug co-crystal structure. The data set is classed as binding. The settings on record: X-ray crystallography. As for the experimental part:
The binding mode of compound 11a in the yeast proteasome was examined. The yeast proteasome (yCP) has high homology with mammalian proteasomes but is easier to crystallize. Compound 11a was incubated at a high concentration with active yCP, and the enzyme-inhibitor complex was analyzed using X-ray crystallography.
Compound 11a is positioned in a kinked β-sheet-like conformation that is stabilized by hydrogen bonding with Thr21 and Gly47. The PI is further stabilized by the hydrophobic interaction of P3, whereas P2 and P4 lack any direct interactions within the binding pocket. The PI prevents the regeneration of the Thr1 catalytic site by complexing the water molecule generated by the hydrolysis of the β-lactone. The water molecule is stabilized in the binding pocket by residues Thr1, Ser131, and the hydroxyl group of the hydrolyzed lactone. […] The biological effects of P2 and P4 can be attributed to the pharmacokinetics of the cystargolide scaffold instead of binding to the β5 subunit of the proteasome.

The target of data set [15] is T8, immunoproteasome iβ5 subunit (Homo sapiens, UniProt P20618+P28062).
T8 construct: purchased Enzo Life Sciences
Briefly: Subunit selectivity, purified immunoproteasome iβ5. The data set is classed as biochemical. The settings on record: 8 μg/mL purified iCP; ± SD; read-out: iβ5 IC50. The method, then:
as §2, §3

The subject of data set [16] is cancer cells (MCF7, MDA-MB-231, RPMI 8226). Briefly: MTT cytotoxicity, cell line not given.
Data set [17] deals with MCF-7 breast cancer cell line. Briefly: Drug deactivation by serum: cytotoxicity towards MCF-7 in FBS, NBS or human serum. The data set is classed as cell-based. The settings on record: MCF-7 cytotoxicity. The method, then:
The deactivation of compounds was evaluated by testing the toxicity of compounds 8 and 12a in three different types of serums (i.e., fetal bovine serum (FBS), newborn bovine serum (NBS), and human serum). FBS is taken during the development of a calf fetus, so the serum has less protein associated with the innate immune system, and less protein altogether compared to NBS and human serum. […] The structural optimization of compound 12a improved the serum stability of the drug: P3 was changed from isopropyl to CH2OBn, and P4 was changed from OBn to NHBn. The OBn group of P4 was more sensitive to deactivation than NHBn.
The MCF-7 cells were cultured in three different types of serum. Assays were performed in biological triplicate, and the data points are reported with the corresponding standard deviation.

Like-named read-outs stand apart in the source and are kept apart here. Where only a bound is given, the exact number is not on record here.

For `CC(C)[C@H](NC(=O)[C@@H]1OC(=O)[C@H]1C1CC1)C(=O)N[C@H](C(=O)OCc1ccccc1)C(C)C` [Compound 9a, Benzyl ((2R,3S)-3-cyclopropyl-4-oxooxetane-2-carbonyl)-L-valyl-L-valinate], the IC50 was 72000 ± 13800 nM in the data set on RPMI 8226 cells [1] (Homo sapiens, RPMI-8226, 48 h, read-out: Cytotoxicity RPMI 8226 IC50); greater than 100000 nM with MDA-MB-231 cells [2] (Homo sapiens, MDA-MB-231, 48 h, read-out: Cytotoxicity MDA-MB-231 IC50); 2480 ± 433 nM in [3] (Table 2, P1 analogues); greater than 100000 nM in the data set with MCF7 cells [4] (Homo sapiens, MCF7, 48 h, read-out: Cytotoxicity MCF7 IC50); 12.2 ± 5.6 nM in [5] (Table 2, P1 analogues, read-out: Proteasome Inhibition ChT-like IC50). The “cellular infiltration / ability to inhibit intracellular proteasomes (in words)” value in data set [6] is recorded as “lowest performance”.

Turning to `CC[C@H](C)[C@@H]1C(=O)O[C@H]1C(=O)N[C@H](C(=O)N[C@@H](CC(C)C)C(=O)OCc1ccccc1)C(C)C` [Compound 10i, Benzyl((2R,3S)-3-((S)-sec-butyl)-4-oxooxetane-2-carbonyl)-L-valyl-L-leucinate], the half-inhibitory concentration (IC50) in data set [3] (Table 3, P2/P3 analogues) was 1350 ± 172 nM; with MDA-MB-231 cells [7] it was 287 ± 136 nM; in the data set with RPMI 8226 cells [8] it was 156 ± 96 nM; with MCF7 cells [10], 351 ± 31 nM; in [5] (Table 3, P2/P3 analogues, read-out: Proteasome Inhibition ChT-like IC50), 7.8 ± 1.6 nM. Moreover, the “cytotoxicity IC50 for all three cell lines tested (in words)” value in [9] is recorded as “midrange nanomolar”.

For the compound `C=CCOC(=O)[C@@H](NC(=O)[C@@H](NC(=O)[C@@H]1OC(=O)[C@H]1[C@@H](C)CC)C(C)C)C(C)C` [Compound 11a, Allyl((2R,3S)-3-((S)-sec-butyl)-4-oxooxetane-2-carbonyl)-L-valyl-L-valinate], the IC50 was 779 ± 42 nM in [11]; 94 ± 15 nM in the data set with RPMI 8226 cells [1] (read-out: Cytotoxicity RPMI 8226 IC50, Table 4, MTT, 48 h); greater than 10000 nM in [12]; 275 ± 112 nM with MDA-MB-231 cells [2] (read-out: Cytotoxicity MDA-MB-231 IC50, Table 4, MTT, 48 h); 19.5 ± 0.8 nM in data set [13]; 41.2 ± 15.2 nM in [15]. The IC50 in the data set on MCF7 cells [4] (read-out: Cytotoxicity MCF7 IC50, Table 4, MTT, 48 h) is 311 ± 82 nM; in data set [5] (Table 4, P4 analogues, read-out: Proteasome Inhibition ChT-like IC50), 11.6 ± 2.8 nM. In data set [14], the “binding mode in the crystal structure” value is “binds covalently to Thr1Oγ at the active site of subunit β5 of the yCP”.

As to `CC[C@H](C)[C@@H]1C(=O)O[C@H]1C(=O)N[C@H](C(=O)N[C@@H](COCc1ccccc1)C(=O)NCc1ccccc1)C(C)C` [Compound 12a], the IC50 in data set [11] came out at 20400 ± 12900 nM; with RPMI 8226 cells [1] (Homo sapiens, RPMI-8226, read-out: Cytotoxicity RPMI 8226 IC50), 28.8 ± 1.09 nM; in data set [12] it was 13600 ± 5490 nM; in the data set on MDA-MB-231 cells [2] (Homo sapiens, MDA-MB-231, read-out: Cytotoxicity MDA-MB-231 IC50) it was 56.3 ± 3.09 nM; in [13], 8.2 ± 1.4 nM; in [15], 33 ± 13.4 nM. Moreover, the IC50 came to 93.9 ± 2.94 nM in the data set with MCF7 cells [4] (Homo sapiens, MCF7, read-out: Cytotoxicity MCF7 IC50) and 0.647 ± 0.021 nM in data set [5] (Table 5, read-out: Proteasome Inhib. ChT-L IC50). The “times less cytotoxic than carfilzomib” value in data set [16] is “about 10 times”. Moreover, in data set [17], the “fold decrease in activity with NBS or human serum instead of FBS” value is less than 10 fold.

The record behind these values is patent publication US11396497B2, “Proteasome inhibitors” (New Mexico Tech University Research Park Corporation, priority 2018, dated 2022).
